# Measurements reported in article PMC4638363, “Linear Interaction Energy Based Prediction of Cytochrome P450 1A2 Binding Affinities with Reliability Estimation” (PLoS ONE, 2015).
# Where two headings read alike, the source gives them in different places.
# Legend:
# recombinant CYP 1A2 [1] = test system: recombinant CYP 1A2
# human CYP 1A2 = target: T1, human CYP 1A2 (Homo sapiens, UniProt P05177)
# T1 sequence (P05177 1-516): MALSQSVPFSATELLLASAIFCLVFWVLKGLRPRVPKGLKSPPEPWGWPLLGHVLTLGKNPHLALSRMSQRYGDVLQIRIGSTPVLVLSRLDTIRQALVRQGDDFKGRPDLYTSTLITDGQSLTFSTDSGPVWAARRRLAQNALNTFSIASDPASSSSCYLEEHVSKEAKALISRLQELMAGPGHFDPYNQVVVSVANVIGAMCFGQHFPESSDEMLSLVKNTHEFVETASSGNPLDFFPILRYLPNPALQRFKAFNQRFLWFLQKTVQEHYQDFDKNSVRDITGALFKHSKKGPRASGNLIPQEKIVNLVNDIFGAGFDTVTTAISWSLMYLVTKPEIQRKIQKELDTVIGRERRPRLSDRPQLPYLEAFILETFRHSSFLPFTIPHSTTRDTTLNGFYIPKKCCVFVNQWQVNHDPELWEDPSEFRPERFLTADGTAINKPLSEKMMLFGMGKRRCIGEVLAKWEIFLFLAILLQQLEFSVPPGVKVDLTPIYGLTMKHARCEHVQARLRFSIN
# recombinant CYP 1A2 [2] = settings: cited from earlier work
# CYP 1A2 [3] = settings: Table A, Source 1; ref Bayer HealthCare databases for CYP inhibition (eTOX); cited from earlier work
# recombinant CYP 1A2 [4] = settings: training set; from literature IC50, Source 3
# CYP 1A2 [5] = settings: read-out: IC 50 (lit); Source 2, recombinant CYPs, phenacetin O-deethylation; cited from earlier work
# CYP 1A2 [6] = settings: literature; cited from earlier work
# CYP 1A2 [7] = settings: from literature IC50, Source 2 (Ref. 58)
# [8] = Table A, Source 3, ref Korhonen et al., J. Med. Chem. 2005
compound,measurement,setting,value
"Cc1cccc2c(C)cccc12 [Compound 39, 1,5-Dimethylnaphthalene]",ΔGbind^Obs,recombinant CYP 1A2 [1]; human,-6.43 kcal/mol
same,"Residual (ΔGbind^Obs–ΔG bind ^Calc), error in prediction",human CYP 1A2,-0.478 kcal/mol
same,IC50,recombinant CYP 1A2 [2],42 µM
"Clc1ccccc1C(c1ccccc1)(c1ccccc1)n1ccnc1 [Compound 22, Clotrimazole]",IC50,CYP 1A2 [3],5.83 µM
"Cc1cc(C)oc(=O)c1 [Compound 72, 4,6-Dimethyl-α-pyron]",ΔGbind^Obs,recombinant CYP 1A2 [4],-3.63 kcal/mol
same,Residual (ΔGbind^Obs—ΔGbind^Calc),human CYP 1A2,1.05 kcal/mol
same,IC50,recombinant CYP 1A2 [2],4500 µM
"Clc1cccc2ccccc12 [Compound 29, 1-Chloronaphthalene]",ΔGbind^Obs,recombinant CYP 1A2 [1]; human,-6.31 kcal/mol
same,"Residual (ΔGbind^Obs–ΔG bind ^Calc), error in prediction",human CYP 1A2,-0.932 kcal/mol
same,IC50,recombinant CYP 1A2 [2]; [8],50 µM
"Cc1ccc2ccccc2n1 [Compound 44, Quinaldine]",IC50,recombinant CYP 1A2 [2]; [8],40 µM
"Cc1ccc(C)c2ccccc12 [Compound 36, 1,4-Dimethylnaphthalene]",ΔGbind^Obs,recombinant CYP 1A2 [1]; human,-7.89 kcal/mol
same,Residual (ΔGbind^Obs—ΔGbind^Calc),human CYP 1A2; training set,-1.77 kcal/mol
same,IC50,recombinant CYP 1A2 [2]; [8],3.6 µM
"O=C1Cc2ccccc2O1 [Compound 60, 2-Coumarone]",ΔGbind^Obs,recombinant CYP 1A2 [1],-5.33 kcal/mol
same,Residual (ΔGbind^Obs—ΔGbind^Calc),human CYP 1A2; training set,-0.263 kcal/mol
same,IC50,recombinant CYP 1A2 [2]; [8],260 µM
"Clc1ccccc1-c1ccccc1 [Compound 66, 2-Chlorobiphenyl]",ΔGbind^Obs,recombinant CYP 1A2 [1]; human,-5.4 kcal/mol
same,"Residual (ΔGbind^Obs–ΔG bind ^Calc), error in prediction",human CYP 1A2; test set,0.669 kcal/mol
same,IC50,recombinant CYP 1A2 [2]; [8],230 µM
"Fc1ccc2ccccc2c1 [Compound 32, 2-Fluoronaphthalene]",ΔGbind^Obs,recombinant CYP 1A2 [4],-6.33 kcal/mol
same,Residual (ΔGbind^Obs—ΔGbind^Calc),human CYP 1A2; training set,-1.34 kcal/mol
same,IC50,recombinant CYP 1A2 [2]; [8],49 µM
"Cc1cc(C)c2ccccc2n1 [Compound 46, 2-4-Dimethylquinoline]",IC50,recombinant CYP 1A2 [2],2.4 µM
"CN1C(=O)CC[C@H]1c1cccnc1 [Compound 73, Cotinine]",ΔGbind^Obs,recombinant CYP 1A2 [4],-3.51 kcal/mol
same,Residual (ΔGbind^Obs—ΔGbind^Calc),human CYP 1A2; training set,1.84 kcal/mol
same,IC50,recombinant CYP 1A2 [2]; [8],5400 µM
"Cc1ccc2ccc(C)cc2c1 [Compound 43, 2,7-Dimethylnaphthalene]",ΔGbind^Obs,recombinant CYP 1A2 [1]; human,-6.17 kcal/mol
same,"Residual (ΔGbind^Obs–ΔG bind ^Calc), error in prediction",human CYP 1A2; test set,0 kcal/mol
same,IC50,recombinant CYP 1A2 [2]; [8],65 µM
"N[C@@H]1C[C@H]1c1ccccc1 (racemic) [Compound 15, Tranylcypromine]",IC50,CYP 1A2 [3],10.4 µM
"Clc1ccccc1CN1CCc2sccc2C1 [Compound 8, Ticlopidine]",IC50,CYP 1A2 [5],[…]
same,Reported inhibition mechanism,CYP 1A2 [6],Competitive^66
"Cc1ccc2c(C)cccc2c1 [Compound 40, 1,6-Dimethylnaphthalene]",ΔGbind^Obs,recombinant CYP 1A2 [1]; human,-6.74 kcal/mol
same,"Residual (ΔGbind^Obs–ΔG bind ^Calc), error in prediction",human CYP 1A2; test set,-0.454 kcal/mol
same,IC50,recombinant CYP 1A2 [2]; [8],25 µM
"Cc1ccc2cc(C)ccc2c1 [Compound 42, 2,6-Dimethylnaphthalene]",ΔGbind^Obs,recombinant CYP 1A2 [1]; human,-6.29 kcal/mol
same,Residual (ΔGbind^Obs—ΔGbind^Calc),human CYP 1A2,-0.454 kcal/mol
same,IC50,recombinant CYP 1A2 [2],52 µM
"Cc1ccc2ccccc2c1 [Compound 30, 2-Methylnaphthalene]",ΔGbind^Obs,recombinant CYP 1A2 [1]; human,-5.78 kcal/mol
same,Residual (ΔGbind^Obs—ΔGbind^Calc),human CYP 1A2,-0.789 kcal/mol
same,IC50,recombinant CYP 1A2 [2],120 µM
"COC(=O)[C@H](c1ccccc1Cl)N1CCc2sccc2C1 [Compound 19, Clopidogrel]",Reported inhibition mechanism,CYP 1A2 [6],Substrate^69
same,IC50,CYP 1A2 [3],24.2 µM
"O=C1CCC(c2ccccc2)O1 (stereo not shown) [Compound 70, γ-Phenyl-γ-butyrolactone]",ΔGbind^Obs,recombinant CYP 1A2 [1],-4.04 kcal/mol
same,Residual (ΔGbind^Obs—ΔGbind^Calc),human CYP 1A2; training set,1.36 kcal/mol
same,IC50,recombinant CYP 1A2 [2]; [8],2300 µM
"CCc1ccc2ccccc2c1 [Compound 31, 2-Ethylnaphthalene]",ΔGbind^Obs,recombinant CYP 1A2 [1]; human,-6.91 kcal/mol
same,"Residual (ΔGbind^Obs–ΔG bind ^Calc), error in prediction",human CYP 1A2; test set,-0.789 kcal/mol
same,IC50,recombinant CYP 1A2 [2]; [8],19 µM
"Fc1ccc([C@@H]2CCNC[C@H]2COc2ccc3c(c2)OCO3)cc1 [Compound 18, Paroxetine]",IC50,CYP 1A2 [3],23.5 µM
